# According to ChEMBL document CHEMBL1140628, “Assessing potency of c-Jun N-terminal kinase 3 (JNK3) inhibitors using 2D molecular descriptors and binary QSAR methodology” (Bioorg Med Chem, 2007):
# Molecular target: Mitogen-activated protein kinase 10 (Homo sapiens, UniProt P53779)
# Experiment: Inhibition of JNK3
# Chain of Mitogen-activated protein kinase 10 (P53779 whole entry): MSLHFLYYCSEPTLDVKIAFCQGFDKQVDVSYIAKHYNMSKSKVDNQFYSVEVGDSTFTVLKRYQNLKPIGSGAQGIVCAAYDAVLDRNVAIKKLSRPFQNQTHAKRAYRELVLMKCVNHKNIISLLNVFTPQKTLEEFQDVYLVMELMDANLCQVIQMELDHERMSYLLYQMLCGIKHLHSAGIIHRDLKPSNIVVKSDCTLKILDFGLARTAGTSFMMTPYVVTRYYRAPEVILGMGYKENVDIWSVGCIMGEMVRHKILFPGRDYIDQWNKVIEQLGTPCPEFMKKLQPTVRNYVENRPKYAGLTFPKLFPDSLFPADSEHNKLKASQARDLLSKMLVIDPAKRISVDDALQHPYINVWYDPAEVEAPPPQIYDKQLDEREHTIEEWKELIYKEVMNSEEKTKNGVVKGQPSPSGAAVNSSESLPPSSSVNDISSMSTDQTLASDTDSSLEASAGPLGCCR
row,IC50 [nM],Compound
1,190,Oc1c2ccccc2c2c3c(cccc13)N=N2 [SP-600125]
2,3.1,COc1ccc(CCNc2nccc(/C(C#N)=C3\Nc4ccccc4S3)n2)cc1
3,41,N#C/C(=C1/Nc2ccccc2S1)c1ccnc(NCCc2ccc(S(N)(=O)=O)cc2)n1
4,400,NC1=CC=C2SN=C3c4ccccc4C(=O)C1C23 (stereo not given)
5,1.6,CCCn1c(C2CCN(C)CC2)nc(-c2ccc(Cl)c(Cl)c2)c1-c1ccnc(NC2CC2)n1
